Results on three compounds are retold here after patent publication US6200985A, “Rapamycin derivatives” (Novartis AG, priority 1995, dated 2001).

Test [1] deals with Balb/c spleen cells. The test can be described thus: Mixed lymphocyte reaction (MLR), murine. As to conditions: inhibition of Balb/c spleen cell proliferation, 5 days co-incubation with irradiated CBA spleen cells; relative to rapamycin. In kind it is cell-based, mouse. The source says:
1. Mixed lymphocyte reaction (MLR)
The Mixed Lymphocyte Reaction was originally developed in connection with allografts, to assess the tissue compatibility between potential organ donors and recipients, and is one of the best established models of immune reaction in vitro. […] The irradiated allogeneic cells induce a proliferative response in the Balb/c spleen cells which can be measured by labeled precursor incorporation into the DNA. […] The inhibitory capacity of the test sample may be compared to rapamycin and expressed as a relative IC50 (i.e. IC50 test sample/IC50 rapamycin).

Test [2] concerns interleukin-6 (IL-6)-dependent mouse hybridoma cell line. In words: IL-6 mediated proliferation (IL-6 PROL). In kind it is cell-based. As to conditions: inhibition of IL-6 dependent hybridoma proliferation, (3-H)thymidine incorporation; relative to rapamycin. The procedure:
2. IL-6 mediated proliferation (IL-6 PROL)
The capacity of the Compounds of formula I to interfere with growth factor, associated signalling pathways is assessed using an interleukin-6 (IL-6)-dependent mouse hybridoma cell line. The assay is performed in 96-well microtiter plates. […] Following a 66 hour incubation in the absence or presence of a test sample, cells are pulsed with 1 μCi (3-H)thymidine/well for another 6 hours, harvested and counted by liquid scintillation. (3-H)thymidine incorporation into DNA correlates with the increase in cell number and is thus a measure of cell proliferation. […] The inhibitory capacity of the test sample may be compared to rapamycin and expressed as a relative IC50 (i.e. test sample/IC50 rapamycin).

In test [3] the target is T1, recombinant human macrophilin-12 (FKBP-12) (Homo sapiens, UniProt P62942).
T1 construct: biotin (label)
In words: Macrophilin binding assay (MBA), competitive binding against immobilized FK-506. As to conditions: inhibition of biot-MAP binding to immobilized FK-506. The text has this:
3. Macrophilin binding assay (MBA)
Rapamycin and the structurally related immunosuppressant, FK-506, are both known to bind in vivo to macrophilin-12 (also known as FK-506 binding protein or FKBP-12), and this binding is thought to be related to the immunosuppressive activity of these compounds. […] In this assay, FK-506 coupled to BSA is used to coat microtiter wells. Biotinylated recombinant human macrophilin-12 (biot-MAP) is allowed to bind in the presence or absence of a test sample to the immobilized FK-506. After washing (to remove non-specifically bound macrophilin), bound biot-MAP is assessed by incubation with a streptavidin-alkaline phosphatase conjugate, followed by washing and subsequent addition of p-nitrophenyl phosphate as a substrate. The read-out is the OD at 405 nm. Binding of a test sample to biot-MAP results in a decrease in the amount of biot-MAP bound to the FK-506 and thus in a decrease in the OD405. A dilution series of the test sample allows determination of the concentration resulting in 50% inhibition of the biot-MAP binding to the immobilized FK-506 (IC50). The inhibitory capacity of a test sample is compared to the IC50 of free FK506 as a standard and expressed as a relative IC50 (i.e., IC50 test sample/IC50 -free FK506).

Test [4] relates to rat kidney allograft. The test can be described thus: Chronic allograft rejection, rat kidney allograft model. In kind it is in vivo. As to conditions: per os, 0.5 to 2.5 mg/kg, 69-72 days starting day 53-64 after transplantation. The procedure:
10. Chronic Allogaft Rejection
The kidney of a male DA (RT1^a) rat is orthotopically transplanted into a male Lewis (RT1^l) recipient. In total 24 animals are transplanted. All animals are treated with cyclosporine A at 7.5 mg/kg/day per os for 14 days starting on the day of transplantation, to prevent acute cellular rejection. Contralateral nephrectomy is not performed. Each experimental group treated with a distinct dose of a compound of formula I or placebo comprises six animals.
Starting at day 53-64 after transplantation, the recipient animals are treated per os for another 69-72 days with a compound of formula I or receive placebo. At 14 days after transplantation animals are subjected to graft assessment by magnetic resonance imaging (MRI) with perfusion measurement of the kidneys (with comparison of the grafted kidney and the own contralateral kidney). This is repeated at days 53-64 after transplantation and at the end of the experiment. The animals are then autopsied. Rejection parameters such as MRI score, relative perfusion rate of the grafted kidney and histologic score of the kidney allograft for cellular rejection and vessel changes are determined and statistically analyzed.

Test [5] concerns myointimal proliferation in balloon-injured carotid artery. The test can be described thus: Angioplasty (balloon catheterization of the carotid artery). In kind it is in vivo. As to conditions: rat, per os, daily dose 0.5 to 2.5 mg/kg, day -3 to day +14.
Description: Under Isofluorane anaesthesia, a Fogarty 2F catheter is introduced into the left common carotid artery via the external carotid and inflated (distension=10 μl H2 O). The inflated balloon is withdrawn along the length of the common carotid three times, the latter two times whilst twisting gently to obtain a uniform de-endothelialization. The cathether is then removed, a ligature placed around the external carotid to prevent bleeding and the animals allowed to recover.
2 groups of 12 RoRo rats (400 g, approximately 24 weeks old) are used for the study: one control group and one group receiving the compound to be tested. The rats are fully randomized during all handling, experimental procedures and analysis.
The compound to be tested is administered p.o. (gavage) starting 3 days before balloon injury (day -3) until the end of the study, 14 days after balloon injury (day +14). Rats are kept in individual cages and allowed food and water ad libidum. […]
Sections 1-2 μm thick are cut from the middle section of each carotid with a hard metal knife on a rotary microtome and stained for 2 min with Giemse-stain. About 5 sections from each carotid are thus prepared and the cross-sectional areal of the media, neointima and the lumen morphometrically evaluated by means of an image analysis system (MCID, Toronto, Canada).

T1 sequence (P62942 whole entry): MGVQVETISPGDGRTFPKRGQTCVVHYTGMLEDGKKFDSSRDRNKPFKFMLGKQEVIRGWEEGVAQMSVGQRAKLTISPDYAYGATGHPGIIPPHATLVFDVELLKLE

Consider `CO[C@H]1C[C@@H]2CC[C@@H](C)[C@@](O)(O2)C(=O)C(=O)N2CCCC[C@H]2C(=O)O[C@H]([C@H](C)C[C@@H]2CC[C@@H](O)[C@H](OC)C2)CC[C@H](C)/C=C(\C)[C@@H](O)[C@@H](OC)C(=O)[C@H](C)C[C@H](C)/C=C/C=C/C=C/1C` [Example 1, 32-Deoxorapamycin], for which the “relative IC50 (IC50 test sample/IC50 rapamycin)” value in test [1] worked out at 0.3. For the same compound, the “relative IC50 (test sample/IC50 rapamycin)” value in test [2] is recorded as 0.2. For the same compound, the “relative IC50 (IC50 test sample/IC50 free FK506)” value in test [3] was 1. Moreover, the “rejection parameters (MRI score, relative perfusion rate of grafted kidney, histologic score)” value in test [4] is recorded as “reduction in all above mentioned rejection parameters”. Moreover, the myointimal proliferation entry in test [5] is given as “inhibit myointimal proliferation”.

For `CCC#CCO[C@H]1C[C@@H]2CC[C@@H](C)[C@@](O)(O2)C(=O)C(=O)N2CCCC[C@H]2C(=O)O[C@H]([C@H](C)C[C@@H]2CC[C@@H](O)[C@H](OC)C2)C[C@H](O)[C@H](C)/C=C(\C)[C@@H](O)[C@@H](OC)C(=O)[C@H](C)C[C@H](C)/C=C/C=C/C=C/1C` [Example 2, 16-pent-2-ynyloxy-32(S)-dihydro rapamycin], the “relative IC50 (IC50 test sample/IC50 rapamycin)” value in test [1] is 0.08. The “relative IC50 (test sample/IC50 rapamycin)” value in test [2] turned out to be 0.09. The “relative IC50 (IC50 test sample/IC50 free FK506)” value in test [3] was 2.8. The “rejection parameters (MRI score, relative perfusion rate of grafted kidney, histologic score)” value in test [4] is given as “reduction in all above mentioned rejection parameters”. Besides, in test [5], the myointimal proliferation result is “inhibit myointimal proliferation”.

Regarding `CO[C@H]1C[C@@H]2CC[C@@H](C)[C@@](O)(O2)C(=O)C(=O)N2CCCC[C@H]2C(=O)O[C@H]([C@H](C)C[C@@H]2CC[C@@H](OCCO)[C@H](OC)C2)C[C@H](O)[C@H](C)/C=C(\C)[C@@H](O)[C@@H](OC)C(=O)[C@H](C)C[C@H](C)/C=C/C=C/C=C/1C` [Example 5, (32S)-dihydro40-(2-hydroxy)ethyl-rapamycin], the “relative IC50 (IC50 test sample/IC50 free FK506)” value in test [3] turned out to be 25.
